# Assay results published in ChEMBL document CHEMBL1201862, “PubChem BioAssay data set” (2004).
#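 1) Cells in 96-well plates. 2) Compound, 48 h, 5 concentrations. 3) Linear interpolation between surrounding doses. 4) Unreached endpoint = highest concentration. The concentration for 50% growth inhibition is given as GI50.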 Active and inactive are the calls of the source. Cut-off read from the data, not from the text of the source: active = GI50 up to about 1.1 µM and inactive = higher.
# Experiments:
# Assay in all cases: growth of human tumour cells (NCI), 48 h
# 786-0 = system: 786-0
# A498 = system: A498
# A549 = system: A549
# ACHN = system: ACHN
# BT-549 = system: BT-549
# CAKI-1 = system: CAKI-1
# CCRF-CEM = system: CCRF-CEM
# COLO 205 = system: COLO 205
# DU-145 = system: DU-145
# EKVX = system: EKVX
# HCC 2998 = system: HCC 2998
# HCT-116 = system: HCT-116
# HCT-15 = system: HCT-15
# HL-60 = system: HL-60
# HOP-92 = system: HOP-92
# HT-29 = system: HT-29
# Hs-578T = system: Hs-578T
# IGROV-1 = system: IGROV-1
# K562 = system: K562
# KM12 = system: KM12
# LOX IMVI = system: LOX IMVI
# M14 = system: M14
# MCF7 = system: MCF7
# MDA-MB-231 = system: MDA-MB-231
# MDA-MB-435 = system: MDA-MB-435
# MDA-N = system: MDA-N
# MOLT-4 = system: MOLT-4
# Malme-3M = system: Malme-3M
# NCI-H226 = system: NCI-H226
# NCI-H23 = system: NCI-H23
# NCI-H460 = system: NCI-H460
# NCI-H522 = system: NCI-H522
# NCI/ADR-RES = system: NCI/ADR-RES
# OVCAR-4 = system: OVCAR-4
# OVCAR-5 = system: OVCAR-5
# OVCAR-8 = system: OVCAR-8
# PC-3 = system: PC-3
# RPMI-8226 = system: RPMI-8226
# RXF 393 = system: RXF 393
# SF-268 = system: SF-268
# SF-539 = system: SF-539
# SK-MEL-28 = system: SK-MEL-28
# SK-MEL-2 = system: SK-MEL-2
# SK-MEL-5 = system: SK-MEL-5
# SN12C = system: SN12C
# SNB-19 = system: SNB-19
# SNB-75 = system: SNB-75
# SR = system: SR
# SW-620 = system: SW-620
# T47D = system: T47D
# TK-10 = system: TK-10
# U-251 = system: U-251
# UACC-257 = system: UACC-257
# UACC-62 = system: UACC-62
# UO-31 = system: UO-31
# HOP-62 = system: HOP-62
# OVCAR-3 = system: OVCAR-3
# SF-295 = system: SF-295
# SK-OV-3 = system: SK-OV-3
smiles,measurement,setting,value
COc1cc(/C=C/C2=NN(c3cccc(S(=O)(=O)O)c3)C3(C2)SCC(=O)N3c2nc3ccccc3s2)cc(OC)c1OC (stereo not given),GI50,786-0,18.4 µM (inactive)
same,GI50,A498,39.9 µM (inactive)
same,GI50,A549,56.1 µM (inactive)
same,GI50,ACHN,64.3 µM (inactive)
same,GI50,BT-549,42 µM (inactive)
same,GI50,CAKI-1,55.2 µM (inactive)
same,GI50,CCRF-CEM,28.8 µM (inactive)
same,GI50,COLO 205,> 100 µM (inactive)
same,GI50,DU-145,29.4 µM (inactive)
same,GI50,EKVX,68.1 µM (inactive)
same,GI50,HCC 2998,> 100 µM (inactive)
same,GI50,HCT-116,50.5 µM (inactive)
same,GI50,HCT-15,51.9 µM
same,GI50,HL-60,23.8 µM (inactive)
same,GI50,HOP-92,> 100 µM (inactive)
same,GI50,HT-29,90.8 µM (inactive)
same,GI50,Hs-578T,56.6 µM (inactive)
same,GI50,IGROV-1,43.2 µM (inactive)
same,GI50,K562,41.1 µM (inactive)
same,GI50,KM12,38.5 µM (inactive)
same,GI50,LOX IMVI,20.4 µM (inactive)
same,GI50,M14,74.8 µM (inactive)
same,GI50,MCF7,36.9 µM (inactive)
same,GI50,MDA-MB-231,43.3 µM (inactive)
same,GI50,MDA-MB-435,23 µM (inactive)
same,GI50,MDA-N,39.4 µM (inactive)
same,GI50,MOLT-4,32.9 µM (inactive)
same,GI50,Malme-3M,> 100 µM (inactive)
same,GI50,NCI-H226,44.8 µM (inactive)
same,GI50,NCI-H23,69.3 µM (inactive)
same,GI50,NCI-H460,37.5 µM (inactive)
same,GI50,NCI-H522,18 µM (inactive)
same,GI50,NCI/ADR-RES,42.7 µM (inactive)
same,GI50,OVCAR-4,78.7 µM (inactive)
same,GI50,OVCAR-5,> 100 µM (inactive)
same,GI50,OVCAR-8,44.1 µM (inactive)
same,GI50,PC-3,45.9 µM (inactive)
same,GI50,RPMI-8226,21.3 µM (inactive)
same,GI50,RXF 393,56.4 µM (inactive)
same,GI50,SF-268,39.4 µM (inactive)
same,GI50,SF-539,46 µM (inactive)
same,GI50,SK-MEL-28,> 100 µM (inactive)
same,GI50,SK-MEL-2,42.1 µM (inactive)
same,GI50,SK-MEL-5,74.1 µM (inactive)
same,GI50,SN12C,33.3 µM (inactive)
same,GI50,SNB-19,31.9 µM (inactive)
same,GI50,SNB-75,63.5 µM (inactive)
same,GI50,SR,23.8 µM (inactive)
same,GI50,SW-620,61.7 µM (inactive)
same,GI50,T47D,15 µM (inactive)
same,GI50,TK-10,29.9 µM (inactive)
same,GI50,U-251,33 µM (inactive)
same,GI50,UACC-257,95.7 µM (inactive)
same,GI50,UACC-62,35.1 µM (inactive)
same,GI50,UO-31,36.1 µM (inactive)
O=C1Nc2cccc(Cl)c2/C1=C\c1c(Cl)nc2sccn12,GI50,786-0,9.31 µM (inactive)
same,GI50,A498,33.1 µM (inactive)
same,GI50,A549,> 100 µM (inactive)
same,GI50,ACHN,12.2 µM (inactive)
same,GI50,BT-549,28.8 µM (inactive)
same,GI50,CAKI-1,43.2 µM (inactive)
same,GI50,CCRF-CEM,> 100 µM (inactive)
same,GI50,COLO 205,> 100 µM (inactive)
same,GI50,DU-145,65 µM (inactive)
same,GI50,EKVX,43.3 µM (inactive)
same,GI50,HCC 2998,> 100 µM (inactive)
same,GI50,HCT-116,37.3 µM (inactive)
same,GI50,HCT-15,> 100 µM
same,GI50,HL-60,> 100 µM (inactive)
same,GI50,HOP-62,15 µM (inactive)
same,GI50,HOP-92,16.8 µM (inactive)
same,GI50,HT-29,> 100 µM (inactive)
same,GI50,Hs-578T,21.9 µM (inactive)
same,GI50,IGROV-1,28 µM (inactive)
same,GI50,K562,> 100 µM (inactive)
same,GI50,KM12,> 100 µM (inactive)
same,GI50,LOX IMVI,63.8 µM (inactive)
same,GI50,M14,50.2 µM (inactive)
same,GI50,MCF7,> 100 µM (inactive)
same,GI50,MDA-MB-231,16.3 µM (inactive)
same,GI50,MDA-MB-435,> 100 µM (inactive)
same,GI50,MDA-N,> 100 µM (inactive)
same,GI50,MOLT-4,> 100 µM (inactive)
same,GI50,Malme-3M,76 µM (inactive)
same,GI50,NCI-H23,21.7 µM (inactive)
same,GI50,NCI-H460,> 100 µM (inactive)
same,GI50,NCI-H522,50.5 µM (inactive)
same,GI50,NCI/ADR-RES,55.1 µM (inactive)
same,GI50,OVCAR-3,> 100 µM (inactive)
same,GI50,OVCAR-5,> 100 µM (inactive)
same,GI50,OVCAR-8,31.1 µM (inactive)
same,GI50,PC-3,64.4 µM (inactive)
same,GI50,RPMI-8226,> 100 µM (inactive)
same,GI50,RXF 393,13.7 µM (inactive)
same,GI50,SF-268,18.9 µM (inactive)
same,GI50,SF-295,28.2 µM (inactive)
same,GI50,SF-539,5.2 µM (inactive)
same,GI50,SK-MEL-28,> 100 µM (inactive)
same,GI50,SK-MEL-2,13.5 µM (inactive)
same,GI50,SK-MEL-5,> 100 µM (inactive)
same,GI50,SK-OV-3,14.9 µM (inactive)
same,GI50,SN12C,29.6 µM (inactive)
same,GI50,SNB-19,17.6 µM (inactive)
same,GI50,SNB-75,11.2 µM (inactive)
same,GI50,SR,> 100 µM (inactive)
same,GI50,SW-620,> 100 µM (inactive)
same,GI50,T47D,44.6 µM (inactive)
same,GI50,TK-10,11.2 µM (inactive)
same,GI50,U-251,6.03 µM (inactive)
same,GI50,UACC-257,> 100 µM (inactive)
same,GI50,UACC-62,31.5 µM (inactive)
same,GI50,UO-31,27.7 µM (inactive)
CCOC(=O)C(C)c1nc2cc(N3CCOCC3)c(F)cc2[nH]c1=O (stereo not given),GI50,786-0,> 100 µM (inactive)
same,GI50,A498,> 100 µM (inactive)
same,GI50,A549,> 100 µM (inactive)
same,GI50,ACHN,> 100 µM (inactive)
same,GI50,BT-549,> 100 µM (inactive)
same,GI50,CAKI-1,> 100 µM (inactive)
same,GI50,CCRF-CEM,> 100 µM (inactive)
same,GI50,COLO 205,> 100 µM (inactive)
same,GI50,DU-145,> 100 µM (inactive)
same,GI50,EKVX,> 100 µM (inactive)
same,GI50,HCC 2998,> 100 µM (inactive)
same,GI50,HCT-116,> 100 µM (inactive)
same,GI50,HCT-15,> 100 µM
same,GI50,HL-60,> 100 µM (inactive)
same,GI50,HOP-62,> 100 µM (inactive)
same,GI50,HOP-92,> 100 µM (inactive)
same,GI50,HT-29,> 100 µM (inactive)
same,GI50,Hs-578T,> 100 µM (inactive)
same,GI50,IGROV-1,> 100 µM (inactive)
same,GI50,K562,> 100 µM (inactive)
same,GI50,KM12,> 100 µM (inactive)
same,GI50,M14,> 100 µM (inactive)
same,GI50,MCF7,> 100 µM (inactive)
same,GI50,MDA-MB-231,> 100 µM (inactive)
same,GI50,MDA-MB-435,> 100 µM (inactive)
same,GI50,MDA-N,> 100 µM (inactive)
same,GI50,MOLT-4,> 100 µM (inactive)
same,GI50,Malme-3M,> 100 µM (inactive)
same,GI50,NCI-H226,> 100 µM (inactive)
same,GI50,NCI-H23,> 100 µM (inactive)
same,GI50,NCI-H460,> 100 µM (inactive)
same,GI50,NCI-H522,53.1 µM (inactive)
same,GI50,NCI/ADR-RES,> 100 µM (inactive)
same,GI50,OVCAR-3,> 100 µM (inactive)
same,GI50,OVCAR-4,> 100 µM (inactive)
same,GI50,OVCAR-5,> 100 µM (inactive)
same,GI50,OVCAR-8,> 100 µM (inactive)
same,GI50,PC-3,> 100 µM (inactive)
same,GI50,RPMI-8226,> 100 µM (inactive)
same,GI50,RXF 393,> 100 µM (inactive)
same,GI50,SF-268,> 100 µM (inactive)
same,GI50,SF-295,> 100 µM (inactive)
same,GI50,SF-539,> 100 µM (inactive)
same,GI50,SK-MEL-28,> 100 µM (inactive)
same,GI50,SK-MEL-2,> 100 µM (inactive)
same,GI50,SK-MEL-5,> 100 µM (inactive)
same,GI50,SK-OV-3,> 100 µM (inactive)
same,GI50,SN12C,> 100 µM (inactive)
same,GI50,SNB-19,> 100 µM (inactive)
same,GI50,SNB-75,> 100 µM (inactive)
same,GI50,SR,> 100 µM (inactive)
same,GI50,SW-620,> 100 µM (inactive)
same,GI50,T47D,> 100 µM (inactive)
same,GI50,TK-10,> 100 µM (inactive)
same,GI50,U-251,> 100 µM (inactive)
same,GI50,UACC-257,> 100 µM (inactive)
same,GI50,UACC-62,> 100 µM (inactive)
same,GI50,UO-31,> 100 µM (inactive)
